In US8937189B2, “Tri-substituted 2-benzhydryl-5-benzylamino-tetrahydro-pyran-4-ol and 6-benzhydryl-4-benzylamino-tetrahydro-pyran-3-ol analogues, and novel 3,6-disubstituted pyran derivatives” (Wayne State University, priority 2004, dated 2015):
Structures can show the parent of a compound that is named as a salt.

What was measured:
[1] = test system: rat NET; assay: Inhibition of [3H]nisoxetine binding to NET; details: Table 3; selectivity ratio of IC50 values
Experimental: (§1) Briefly, rat striatum was the source for DAT, and cerebral cortex for SERT and NET. […] Test compounds were dissolved in dimethyl sulfoxide (DMSO) and diluted out in 10% (v/v) DMSO. […] At lease five triplicate concentrations of each test compound were studied, spaced evenly around the IC50 value. For DAT uptake assays, uptake of 50 nM [^3H]DA into rat striatal synaptosomes was measured exactly as described by us previously. Briefly, rat striatal P2 membrane fractions were incubated with test compounds for 8 min followed by the additional presence of [^3H]DA for 4 min at 25?. […] Construction of inhibition curves and dissolvement of test compounds were as described above.

[2] = biological target: T1, rat DAT (Rattus norvegicus, UniProt P23977); assay: Inhibition of [3H]WIN 35,428 binding to DAT
T1 construct: rat striatum was the source for DAT, and cerebral cortex for SERT and NET; from tissue; host or cells: rat striatum (P2 membrane fractions / synaptosomes for uptake)
T1 sequence (P23977 whole entry): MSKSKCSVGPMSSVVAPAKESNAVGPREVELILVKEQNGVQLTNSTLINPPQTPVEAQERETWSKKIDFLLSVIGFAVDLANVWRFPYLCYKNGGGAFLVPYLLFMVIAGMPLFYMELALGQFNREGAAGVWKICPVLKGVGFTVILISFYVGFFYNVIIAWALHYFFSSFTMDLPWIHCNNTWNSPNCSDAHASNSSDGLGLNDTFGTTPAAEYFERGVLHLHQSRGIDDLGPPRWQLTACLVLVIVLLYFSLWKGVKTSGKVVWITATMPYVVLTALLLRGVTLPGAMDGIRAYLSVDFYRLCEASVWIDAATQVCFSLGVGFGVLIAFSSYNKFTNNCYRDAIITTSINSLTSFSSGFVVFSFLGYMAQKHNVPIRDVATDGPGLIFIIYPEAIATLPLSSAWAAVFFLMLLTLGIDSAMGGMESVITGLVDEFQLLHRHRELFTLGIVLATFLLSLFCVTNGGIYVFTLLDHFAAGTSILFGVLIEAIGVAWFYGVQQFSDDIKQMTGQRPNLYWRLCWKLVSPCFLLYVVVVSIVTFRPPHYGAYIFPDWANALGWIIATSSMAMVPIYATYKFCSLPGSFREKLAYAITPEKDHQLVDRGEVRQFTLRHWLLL
Experimental: as §1

[3] = biological target: T2, DAT (Rattus norvegicus, UniProt P23977); assay: Inhibition of [3H]DA uptake by DAT into rat striatal synaptosomes; assay type: biochemical; details: DAT binding vs DA uptake
T2 construct: rat striatum was the source for DAT, and cerebral cortex for SERT and NET; from tissue; host or cells: rat striatum (P2 membrane fractions / synaptosomes for uptake)
T2 sequence (P23977 whole entry): as above
Experimental: as §1

[4] = biological target: T3, NET (Rattus norvegicus, UniProt Q63380); assay: Inhibition of [3H]NE uptake by NET; assay type: biochemical; details: text summary of Table 4
T3 construct: from tissue
T3 sequence (Q63380 1-617): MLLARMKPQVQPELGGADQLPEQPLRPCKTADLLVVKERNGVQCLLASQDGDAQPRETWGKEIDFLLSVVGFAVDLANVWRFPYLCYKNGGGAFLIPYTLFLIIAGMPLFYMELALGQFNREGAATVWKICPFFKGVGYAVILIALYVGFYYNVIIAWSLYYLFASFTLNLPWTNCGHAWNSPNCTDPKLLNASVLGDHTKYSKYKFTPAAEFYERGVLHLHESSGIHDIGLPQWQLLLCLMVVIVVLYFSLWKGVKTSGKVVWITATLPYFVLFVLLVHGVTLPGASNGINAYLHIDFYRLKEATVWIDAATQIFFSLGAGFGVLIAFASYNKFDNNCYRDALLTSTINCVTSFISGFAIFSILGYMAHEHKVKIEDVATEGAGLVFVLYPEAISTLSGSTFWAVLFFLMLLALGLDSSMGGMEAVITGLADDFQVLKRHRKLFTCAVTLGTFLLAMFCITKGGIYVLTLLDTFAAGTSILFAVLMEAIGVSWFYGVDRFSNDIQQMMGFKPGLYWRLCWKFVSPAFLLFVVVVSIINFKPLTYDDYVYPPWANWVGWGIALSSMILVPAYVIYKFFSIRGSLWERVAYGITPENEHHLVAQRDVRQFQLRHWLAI

[5] = biological target: T4, SERT (Rattus norvegicus, UniProt P31652); assay: Inhibition of [3H]5-HT uptake by SERT; assay type: biochemical; details: text summary of Table 4
T4 construct: from tissue
T4 sequence (P31652 whole entry): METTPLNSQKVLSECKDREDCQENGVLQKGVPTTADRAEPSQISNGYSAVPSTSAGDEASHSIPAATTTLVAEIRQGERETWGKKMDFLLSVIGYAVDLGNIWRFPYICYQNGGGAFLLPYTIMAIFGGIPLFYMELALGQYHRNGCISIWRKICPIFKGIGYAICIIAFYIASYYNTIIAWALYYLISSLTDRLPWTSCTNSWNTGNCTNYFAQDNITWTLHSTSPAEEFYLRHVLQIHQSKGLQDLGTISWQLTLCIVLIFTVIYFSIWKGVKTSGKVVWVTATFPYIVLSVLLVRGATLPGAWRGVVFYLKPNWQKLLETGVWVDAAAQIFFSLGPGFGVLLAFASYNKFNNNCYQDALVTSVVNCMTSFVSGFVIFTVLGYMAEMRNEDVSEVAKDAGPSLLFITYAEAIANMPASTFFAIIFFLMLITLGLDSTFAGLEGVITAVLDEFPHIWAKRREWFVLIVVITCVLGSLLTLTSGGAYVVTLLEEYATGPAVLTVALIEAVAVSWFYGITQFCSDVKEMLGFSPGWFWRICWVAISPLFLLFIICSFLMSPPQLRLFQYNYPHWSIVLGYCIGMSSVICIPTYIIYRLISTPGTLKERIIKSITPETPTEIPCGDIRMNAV

[6] = biological target: T5, rat SERT (Rattus norvegicus, UniProt P31652); assay: Inhibition of [3H]citalopram binding to SERT
T5 construct: rat striatum was the source for DAT, and cerebral cortex for SERT and NET; from tissue; host or cells: rat cerebral cortex
T5 sequence (P31652 whole entry): as above
Experimental: as §1

NET binding/DAT binding [1]	SMILES	Blockade of NET, in words [4]	also measured
–	COc1ccc(CN[C@H]2C[C@H](C(c3ccccc3)c3ccccc3)OC[C@H]2O)cc1 (as salt: oxalate) [(+)-29g, (3S,4S,6R)-6-benzhydryl-4-(4-methoxy-benzylamino)-tetrahydro-pyran-3-ol]	–	melting point: 235 to 237 °C
–	O[C@@H]1CO[C@@H](C(c2ccccc2)c2ccccc2)C[C@@H]1NCc1ccccc1 (as salt: oxalate) [(+)-29h, (3S,4S,6R)-6-benzhydryl-4-benzylamino-tetrahydropyran-3-ol]	–	melting point: 259 to 260 °C
–	O[C@@H]1CO[C@H](C(c2ccccc2)c2ccccc2)C[C@H]1NCc1ccccc1 (as salt: oxalate) [(−)-29h, (3S,4R,6S)-6-benzhydryl-4-benzylamino-tetrahydropyran-3-ol]	–	melting point: 259 to 260 °C
–	Oc1ccc(CN[C@H]2CC[C@@H](C(c3ccccc3)c3ccccc3)OC2)cc1 (relative stereo) (as salt: oxalate) [Compound 16h, Cis-(6-benzhydryl-tetrahydropyran-3-yl)-(4-hydroxy-benzyl)-amine]	–	melting point: 136 to 138 °C
3.9	Fc1ccc(CN[C@H]2CCO[C@@H](C(c3ccccc3)c3ccccc3)C2)cc1 (relative stereo) [Compound 7a, cis-(2-benzhydryl-tetrahydropyran-4-yl)-(4-fluorobenzyl)-amine]	–	–
–	N[C@H]1CC[C@@H](C(c2ccccc2)c2ccccc2)OC1 (relative stereo) [Compound 15, Cis-(6-benzhydryl-tetrahydropyran-3-yl)-amine]	–	Activity at the DAT, in words [2]: little or no activity at the DAT
1.4	Fc1ccc(CN[C@H]2CC[C@@H](C(c3ccccc3)c3ccccc3)OC2)cc1 (relative stereo) [Compound 16b, Cis-(6-benzhydryl-tetrahydropyran-3-yl)-(4-fluoro-benzyl)-amine]	–	–
–	O=[N+]([O-])c1ccc(CN[C@H]2CC[C@@H](C(c3ccccc3)c3ccccc3)OC2)cc1 (relative stereo) [Compound 16d, Cis-(6-benzhydryl-tetrahydropyran-3-yl)-(4-nitro-benzyl)-amine]	–	Potency in inhibiting binding versus uptake, in words [3]: three fold higher potency in inhibiting binding than uptake
0.36	Clc1ccc(CN[C@H]2CC[C@@H](C(c3ccccc3)c3ccccc3)OC2)cc1Cl (relative stereo) [Compound 16i, Cis-(6-benzhydryl-tetrahydropyran-3-yl)-(3,4-dichloro-benzyl)-amine]	–	–
1.9	Fc1ccc(CN[C@H]2CC[C@@H](C(c3ccccc3)c3ccccc3)OC2)cc1F (relative stereo) [Compound 16j, Cis-(6-benzhydryl-tetrahydropyran-3-yl)-(3,4-difluoro-benzyl)-amine]	–	–
0.90	c1ccc(CN[C@H]2CC[C@@H](C(c3ccccc3)c3ccccc3)OC2)cc1 (relative stereo) [Compound 16k, Cis-(6-benzhydryl-tetrahydropyran-3-yl)-benzyl-amine]	–	–
0.73	Ic1ccc(CN[C@H]2CC[C@@H](C(c3ccccc3)c3ccccc3)OC2)cc1 (relative stereo) [Compound 16m, Cis-(6-benzhydryl-tetrahydropyran-3-yl)-(4-iodo-benzyl)-amine]	–	–
–	Oc1ccc(CN[C@H]2CO[C@@H](C(c3ccccc3)c3ccccc3)C[C@@H]2O)cc1 [(+)-32a, (2R,4S,5S)-2-benzhydryl-5-(4-hydroxy-benzylamino)-tetrahydro-pyran-4-ol]	selective blockers for NET	–
–	Oc1ccc(CN[C@@H]2CC[C@H](C(c3ccccc3)c3ccccc3)OC2)cc1 [(+)-37a, cis-(3R,6R)-(6-benzhydryl-tetrahydropyran-3-yl)-(4-hydroxy-benzyl)-amine]	selective blockers for NET	–
–	COc1ccc(CN[C@@H]2CO[C@H](C(c3ccccc3)c3ccccc3)C[C@H]2O)cc1 [(−)-29a, (2S,4R,5R)-2-benzhydryl-5-(4-methoxy-benzylamino)-tetrahydropyran-4-ol]	potent blockers	Blockade of SERT, in words [5]: potent blockers
–	O[C@@H]1C[C@@H](C(c2ccccc2)c2ccccc2)OC[C@H]1NCc1ccc(F)cc1 [(−)-29b, (2S,4R,5R)-2-benzhydryl-5-(4-fluoro-benzylamino)-tetrahydro-pyran-4-ol]	selective blockers for NET	–
–	O[C@@H]1C[C@@H](C(c2ccccc2)c2ccccc2)OC[C@H]1NCc1ccccc1 [(−)-29d, (2S,4R,5R)-2-benzhydryl-5-benzylamino-tetrahydro-pyran-4-ol]	selective blockers for NET	–
–	COc1ccc(CN[C@@H]2CO[C@H](C(c3ccccc3)c3ccccc3)C[C@H]2O)c(OC)c1 [(−)-29e, (2S,4R,5R)-2-benzhydryl-5-(2,4-dimethoxy-benzylamino)-tetrahydropyran-4-ol]	potent blockers	Blockade of SERT, in words [5]: potent blockers
–	COc1cc(CN[C@@H]2CO[C@H](C(c3ccccc3)c3ccccc3)C[C@H]2O)cc(OC)c1 [(−)-29f, (2S,4R,5R)-2-benzhydryl-5-(3,5-dimethoxy-benzylamino)-tetrahydropyran-4-ol]	potent blockers	Blockade of SERT, in words [5]: potent blockers
–	Oc1ccc(CN[C@@H]2CO[C@H](C(c3ccccc3)c3ccccc3)C[C@H]2O)cc1 [(−)-32a, (2S,4R,5R)-2-benzhydryl-5-(4-hydroxy-benzylamino)-tetrahydropyran-4-ol]	selective blockers for NET	–
–	O[C@@H]1C[C@@H](C(c2ccccc2)c2ccccc2)OC[C@H]1NCc1ccc2[nH]ccc2c1 [(−)-32b, (2S,4R,5R)-2-benzhydryl-5-[(1H-indol-5-ylmethyl)-amino]-tetrahydropyran-4-ol]	potent blockers	Blockade of SERT, in words [5]: potent blockers
–	Oc1ccc(CN[C@H]2CC[C@@H](C(c3ccccc3)c3ccccc3)OC2)cc1 [(−)-37a, cis-(3S,6S)-(6-benzhydryl-tetrahydropyran-3-yl)-(4-hydroxy-benzyl)-amine]	potent blockers	Blockade of SERT, in words [5]: potent blockers
–	c1ccc(CN[C@H]2CC[C@@H](C(c3ccccc3)c3ccccc3)NC2)cc1 [Compound 1a, reference compound]	–	IC50 [6]: 2130 ± 110 nM; IC50 [2]: 114 nM
2.3	c1ccc(C(c2ccccc2)C2CCC(NCc3c[nH]c4ccccc34)CO2)cc1 (stereo not drawn) [Compound 16f, Cis-(6-benzhydryl-tetrahydropyran-3-yl)-(3-indole-methyl)-amine]	–	–
1.8	c1ccc(C(c2ccccc2)C2CCC(NCc3cc4ccccc4[nH]3)CO2)cc1 (stereo not drawn) [Compound 16g, Cis-(6-benzhydryl-tetrahydropyran-3-yl)-(2-indole-methyl)-amine]	–	Fold more active at DAT compared to 16f ([2]; DAT binding, 227 vs. 794 nM): 3.5 fold

SMILES	NET binding/DAT binding [1]	Blockade of NET, in words [4]	also measured
c1ccc(C(c2ccccc2)[C@@H]2CC[C@H](NCc3ccc4[nH]ccc4c3)CO2)cc1 (relative stereo) [Compound 16n, Cis-(6-benzhydryl-tetrahydropyran-3-yl)-(1H-iodo-5-ylmethyl)-amine]	0.09	–	–
